The values below come from ChEMBL document CHEMBL1159214, “The antiallergic activities of synthetic acrophylline and acrophyllidine” (J Nat Prod, 1995).

Assay [1] concerns Mast cell. Kind of assay: Inhibition of compound 48/80-challenged Sprague-Dawley rat peritoneal mast cell degranulation assessed as beta-glucuronidase release at 30 uM administered 3 mins prior to compound 48/80 challenge measured after 15 mins. It is filed as functional, cell-based.
Assay [2] relates to Mast cell. Briefly: Inhibition of compound 48/80-challenged Sprague-Dawley rat peritoneal mast cell degranulation assessed as beta-glucuronidase release at 10 uM administered 3 mins prior to compound 48/80 challenge measured after 15 mins. It is filed as functional, cell-based.
In the next assay the test system is Mus musculus. Briefly: Suppression of anti-dinitrophenyl-coupled albumin-induced passive cutaneous anaphylaxis reaction-associated ear edema in mouse assessed as reduction of volume of plasma exudation at 30 umol/kg, ip administered 30 mins prior to DNP-albumin challenge measured after 45 mins. It is filed as functional, organism-based.
The subject of assay [3] is Mast cell. Briefly: Inhibition of compound 48/80-challenged Sprague-Dawley rat peritoneal mast cell degranulation assessed as beta-glucuronidase release up to 100 uM administered 3 mins prior to compound 48/80 challenge measured after 15 mins. It is filed as functional, cell-based.

The source made the active and inactive calls. The calls are words filed in the database; no cut-off is given here.

As to `COc1ccc2c(=O)c3ccoc3n(CC=C(C)C)c2c1`, the outcome in the assay on Mast cell [1], in the assay on Mast cell [2] and in the assay on Mus musculus was Active.

Consider `COc1ccc2c(=O)c3ccoc3n(CCC(C)(C)O)c2c1`, for which the result with Mast cell [3] was inactive. For the same molecule, the outcome in the assay with Mus musculus was Active.
